Test results published in paper PMC8609307 (2021).

What was measured:
[1] = tested on: EC-104, Cy3-Cy5 dual-labeled (RNA, riboswitch, azido-uridine analog at 14) GUUCUCAACGGGGUGCCACGCGUACGCGUGCGCUGAGAAAAUACCCGUCGAACCUGAUCCGGAUAACGCCGGCGAAGGGAUUUGAGGCUCCUUCUCAAGUCCUU; experiment: smFRET; conditions: 20 mM MgCl2, 20 mM NaCl; 1 mM TPP
[2] = tested on: EC-28, Cy3-Cy5 dual-labeled (RNA, riboswitch, azido-uridine analog at 14) GUUCUCAACGGGGUGCCACGCGUACGCG; experiment: smFRET; conditions: 20 mM MgCl2, 20 mM NaCl; tested at 1 mM TPP
[3] = tested on: 117-nt transcript without RNAP, Cy3-Cy5 dual-labeled (RNA, riboswitch, azido-uridine analog at 14) GUUCUCAACGGGGUGCCACGCGUACGCGUGCGCUGAGAAAAUACCCGUCGAACCUGAUCCGGAUAACGCCGGCGAAGGGAUUUGAGGCUCCUUCUCAAGUCCUUUGCCACUCUUUUU; experiment: smFRET; conditions: 20 mM MgCl2, 20 mM NaCl; tested at 1 mM TPP; no RNAP
[4] = tested on: EC-88 G37C, Cy3-Cy5 dual-labeled (RNA, riboswitch, azido-uridine analog at 14) GUUCUCAACGGGGUGCCACGCGUACGCGUGCGCUGACAAAAUACCCGUCGAACCUGAUCCGGAUAACGCCGGCGAAGGGAUUUGAGGC; experiment: smFRET; conditions: 20 mM MgCl2, 20 mM NaCl; tested at 1 mM TPP
[5] = tested on: EC-88 WT, Cy3-Cy5 dual-labeled (RNA, riboswitch, azido-uridine analog at 14) GUUCUCAACGGGGUGCCACGCGUACGCGUGCGCUGAGAAAAUACCCGUCGAACCUGAUCCGGAUAACGCCGGCGAAGGGAUUUGAGGC; experiment: smFRET; conditions: 20 mM MgCl2, 20 mM NaCl; 1 mM TPP
[6] = tested on: EC-136, Cy3-Cy5 dual-labeled (RNA, riboswitch, azido-uridine analog at 14) GUUCUCAACGGGGUGCCACGCGUACGCGUGCGCUGAGAAAAUACCCGUCGAACCUGAUCCGGAUAACGCCGGCGAAGGGAUUUGAGGCUCCUUCUCAAGUCCUUUGCCACUCUUUUUUGAGGUGCAAAGUGUUAAA; experiment: smFRET; conditions: 20 mM MgCl2, 20 mM NaCl; poor folding at 1 mM TPP; none at 10 µM TPP
[7] = tested on: EC-83 nascent transcript (RNA, riboswitch) GUUCUCAACGGGGUGCCACGCGUACGCGUGCGCUGAGAAAAUACCCGUCGAACCUGAUCCGGAUAACGCCGGCGAAGGGAUUU; experiment: RNase H cleavage protection; conditions: 20 mM MgCl2, 20 mM NaCl (transcription buffer); stalled at pause site 83; Kswitch plot Figure 2D
[8] = tested on: EC-117, Cy3-Cy5 dual-labeled (RNA, riboswitch, azido-uridine analog at 14) GUUCUCAACGGGGUGCCACGCGUACGCGUGCGCUGAGAAAAUACCCGUCGAACCUGAUCCGGAUAACGCCGGCGAAGGGAUUUGAGGCUCCUUCUCAAGUCCUUUGCCACUCUUUUU; experiment: smFRET; conditions: 20 mM MgCl2, 20 mM NaCl; 1 mM and 10 µM TPP

binding [1]: yes
binding [2]: no
binding [3]: no
binding [4]: no
binding [5]: yes
binding [6]: weak
binding [7]: no
binding [8]: yes
SMILES: Cc1ncc(C[n+]2csc(CCOP(=O)(O)OP(=O)(O)O)c2C)c(N)n1
